From patent US10849907B2, “Imidazopyridine derivatives and the use thereof as medicament” (Boehringer Ingelheim International GmbH, priority 2017, dated 2020)

Legend:
[1] = biological target: T1, NMDA NR1/NR2B receptor (Homo sapiens, UniProt Q05586+Q13224); assay: In vitro NMDA NR1/NR2b cell assay (FLIPR, intracellular calcium induced by glycine/glutamate); assay type: cell-based; conditions: HEK293 cells expressing NMDA NR1/NR2B, 20 μM glycine, 1 μM glutamate, compounds of the invention (Table 1)
T1 construct: host or cells: HEK293, tetracycline-inducible expression
Method: A human HEK293 cell line with tetracyclin-inducible expression of NMDA NR1/NR2B receptor was used as a test system for compound efficacy and potency. The cell line was purchased from ChanTest, Catalog # CT6121. Compound activity was determined by measuring the effect of compounds on intracellular calcium concentration induced by glycine/glutamate agonism in a FLIPRtetra system (Molecular Devices).
The cells were obtained as frozen cells in cryo-vials and stored until use at −150° C. Cells were grown in culture medium (DMEM/F12, 10% FBS, 5 μg/mL Blasticidin, 150 μg/mL Zeozin, 500 μg/mL Geneticin). […] For sub-culturing the cells were detached from flasks by Versene. For the assay, cells were detached, washed twice with induction medium (DMEM/F12 without glutamine, 10% FBS, 2 μg/mL Tetracycline, 2 mM Ketamine) and seeded to 384 well pure coat amine plates (BD 359324, 50000 cells per well in 50 μl) 48 h prior to assay in induction medium.
The test compounds were dissolved in 100% DMSO at a concentration of 10 mM and in a first step diluted in DMSO to a concentration of 5 mM, followed by serial dilution steps in 100% DMSO. Dilution factor and number of dilution steps may vary according to needs. Typically 8 different concentrations by 1:5 dilutions were prepared in duplicate, further intermediate dilutions (1:37.5) of the substances were carried out with aqueous assay buffer (137 mM NaCl, 4 mM KCl, 1.8 mM CaCl, 10 mM HEPES, 10 mM Glucose, pH 7.4) resulting in a compound concentration 3 times above the final test concentration and DMSO at 2.7% resulting in 0.9% final DMSO concentration in the assay.
At the assay day cells were washed 3× with assay puffer, 10 μL buffer remained in the wells after washing. 10 μL Ca kit loading buffer (AAT Bioquest) was added to the cells and the plates were incubated with lid for 60 minutes at r.t. 20 μl assay buffer containing 60 μM glycine (20 μM final) and 3 μM glutamate (1 μM final) was added to column 1-23. Fluorescence (indicating the calcium influx as a result of the NR1/NR2B ion channel activation) was read on the FLIPRtetra device for 60 seconds to monitor the glutamate induced effects. After 2 minutes 20 μL of compound or controls (row 1-22) in assay buffer were carefully added to the wells. […] The average of 2 measurements at 5 minutes and 5 min 10 seconds after compound addition is calculated and further used for IC50 calculations. Each assay microtiter plate contained wells (in column 23 or 24) with DMSO controls instead of compound as controls for glycine/glutamate induced fluorescence (high controls) and wells with 1 μM of a reference NR2b NAM as low controls (Compound 22; reference: Layton, Mark E et al, ACS Chemical Neuroscience 2011, 2(7), 352-362).
The output file of the reader contains the well number and measured average fluorescence units. For data evaluation and calculation, the measurement of the low control was set as 0% control and the measurement of the high control was set as 100% control. The IC50 values were calculated using the standard 4 parameter logistic regression formula. Calculation: [y=(a−d)/(1+(x/c)^b)+d], a=low value, d=high value; x=conc M; c=IC50 M; b=slope.

[2] = biological target: T2, human MDR1 (P-gp) (Homo sapiens, UniProt P08183); assay: MDCK assay MDR-1 (p-GP): permeability across MDCK-MDR1 monolayers; assay type: in vitro ADME; conditions: for Papp A→B: MDCK-MDR1 monolayers, apical-to-basal, pH 7.4, 1 or 10 μM; for efflux ratio: pH 7.4, MDCK-MDR1, Papp (b-a) divided by Papp (a-b)
T2 construct: expressed in transfected cells; host or cells: MDCKII (Madin-Darby canine kidney) cells
Method: The MDCK assays provide information on the potential of a compound to pass the blood brain barrier. Permeability measurements across polarized, confluent MDCK-MDR1 cell monolayers grown on permeable filter supports are used as an in vitro absorption model: apparent permeability coefficients (PE) of the compounds across the MDCK-MDR1 cell monolayers are measured (pH 7.4, 37° C.) in apical-to-basal (AB) and basal-to-apical (BA) transport direction. The AB permeability (PEAB) represents drug absorption from the blood into the brain and the BA permeability (PEBA) drug efflux from the brain back into the blood via both, passive permeability as well as active transport mechanisms mediated by efflux and uptake transporters that are expressed on the MDCK-MDR1 cells, predominantly by the overexpressed human MDR1. Identical or similar permeabilities in both transport directions indicate passive permeation, vectorial permeability points to additional active transport mechanisms. Higher PEBA than PEAB (PEBA/PEAB >5) indicates the involvement of active efflux mediated by MDR1, which might compromise the goal to achieve sufficient brain exposure. Therefore, this assay provides valuable support for selection of compounds applicable for further in vivo testing. High permeability not limited by efflux at the blood brain barrier is a favourable characteristic for compounds that are to be used for drugs acting primarily in the CNS. Similar concepts are applicable to the MDCK BCRP assay and its interpretation; consequently, to ensure high permeability at the blood brain barrier, it is highly preferred to minimize the efflux (efflux <5) at both MDR1 and BCRP transporters.
Apparent permeability coefficients (Papp) of the compounds across the MDCK-MDR1 monolayers (MDCKII cells transfected with human MDR1 cDNA expression plasmid) are measured in apical-to-basal (AB) and basal-to-apical (BA) direction.
MDCK-MDR1 cells (6×10^5 cells/cm^2) are seeded on filter inserts (Corning, Transwell, polycarbonate, 0.4 μm pore size) and cultured for 9 to 10 days. Compounds dissolved in DMSO stock solution (1-20 mM) are diluted with HTP-4 aqueous buffer (128.13 mM NaCl, 5.36 mM KCl, 1 mM MgSO4, 1.8 mM CaCl2, 4.17 mM NaHCO3, 1.19 mM Na2HPO4, 0.41 mM NaH2PO4, 15 mM HEPES, 20 mM glucose, pH 7.4) supplemented with 0.25% BSA to prepare the transport solutions (final concentration: 1 or 10 μM, final DMSO <=0.5%). The transport solution is applied to the apical or basolateral donor side for measuring A-B or B-A permeability, respectively. The receiver side contains HTP-4 buffer supplemented with 0.25% BSA. Samples are collected at the start and end of experiment from the donor and at various time intervals for up to 2 hours also from the receiver side for concentration measurement by HPLC-MS/MS. Sampled receiver volumes are replaced with fresh receiver solution. Efflux ratio is calculated dividing the Papp (b-a) values by the Papp (a-b) values.

T2 sequence (P08183 whole entry): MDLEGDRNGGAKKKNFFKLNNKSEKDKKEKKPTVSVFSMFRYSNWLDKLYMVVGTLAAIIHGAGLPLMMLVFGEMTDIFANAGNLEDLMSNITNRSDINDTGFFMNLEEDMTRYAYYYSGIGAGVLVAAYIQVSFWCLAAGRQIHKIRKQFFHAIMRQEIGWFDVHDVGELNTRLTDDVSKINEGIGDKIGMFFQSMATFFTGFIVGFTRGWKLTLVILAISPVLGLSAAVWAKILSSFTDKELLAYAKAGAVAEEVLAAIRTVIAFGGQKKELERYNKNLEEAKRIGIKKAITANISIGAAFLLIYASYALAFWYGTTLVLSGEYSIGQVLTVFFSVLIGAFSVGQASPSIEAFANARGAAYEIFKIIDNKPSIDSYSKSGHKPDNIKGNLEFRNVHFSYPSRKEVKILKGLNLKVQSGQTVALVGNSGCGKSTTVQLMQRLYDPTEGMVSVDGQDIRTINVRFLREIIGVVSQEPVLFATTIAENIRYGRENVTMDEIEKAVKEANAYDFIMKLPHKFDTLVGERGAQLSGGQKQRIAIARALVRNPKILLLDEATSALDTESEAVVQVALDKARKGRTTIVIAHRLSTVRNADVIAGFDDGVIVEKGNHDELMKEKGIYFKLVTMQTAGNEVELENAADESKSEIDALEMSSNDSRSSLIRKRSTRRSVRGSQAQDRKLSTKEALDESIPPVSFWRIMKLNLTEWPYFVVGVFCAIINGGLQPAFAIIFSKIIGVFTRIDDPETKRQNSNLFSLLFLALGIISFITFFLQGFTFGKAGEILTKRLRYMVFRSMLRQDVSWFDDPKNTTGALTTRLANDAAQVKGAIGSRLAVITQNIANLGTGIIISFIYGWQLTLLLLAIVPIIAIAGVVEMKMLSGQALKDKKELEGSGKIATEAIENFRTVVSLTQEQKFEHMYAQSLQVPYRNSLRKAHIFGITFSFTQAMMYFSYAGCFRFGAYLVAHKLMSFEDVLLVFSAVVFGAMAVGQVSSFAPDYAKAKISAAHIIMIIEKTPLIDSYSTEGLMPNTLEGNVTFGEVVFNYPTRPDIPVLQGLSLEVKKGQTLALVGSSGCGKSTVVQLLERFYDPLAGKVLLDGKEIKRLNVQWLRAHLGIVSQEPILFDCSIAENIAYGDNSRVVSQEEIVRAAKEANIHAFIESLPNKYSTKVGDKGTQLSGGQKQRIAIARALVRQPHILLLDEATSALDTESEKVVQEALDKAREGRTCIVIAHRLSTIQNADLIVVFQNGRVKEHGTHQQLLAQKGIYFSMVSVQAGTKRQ
T1 sequence (Q13224 27-1484, other chains not shown): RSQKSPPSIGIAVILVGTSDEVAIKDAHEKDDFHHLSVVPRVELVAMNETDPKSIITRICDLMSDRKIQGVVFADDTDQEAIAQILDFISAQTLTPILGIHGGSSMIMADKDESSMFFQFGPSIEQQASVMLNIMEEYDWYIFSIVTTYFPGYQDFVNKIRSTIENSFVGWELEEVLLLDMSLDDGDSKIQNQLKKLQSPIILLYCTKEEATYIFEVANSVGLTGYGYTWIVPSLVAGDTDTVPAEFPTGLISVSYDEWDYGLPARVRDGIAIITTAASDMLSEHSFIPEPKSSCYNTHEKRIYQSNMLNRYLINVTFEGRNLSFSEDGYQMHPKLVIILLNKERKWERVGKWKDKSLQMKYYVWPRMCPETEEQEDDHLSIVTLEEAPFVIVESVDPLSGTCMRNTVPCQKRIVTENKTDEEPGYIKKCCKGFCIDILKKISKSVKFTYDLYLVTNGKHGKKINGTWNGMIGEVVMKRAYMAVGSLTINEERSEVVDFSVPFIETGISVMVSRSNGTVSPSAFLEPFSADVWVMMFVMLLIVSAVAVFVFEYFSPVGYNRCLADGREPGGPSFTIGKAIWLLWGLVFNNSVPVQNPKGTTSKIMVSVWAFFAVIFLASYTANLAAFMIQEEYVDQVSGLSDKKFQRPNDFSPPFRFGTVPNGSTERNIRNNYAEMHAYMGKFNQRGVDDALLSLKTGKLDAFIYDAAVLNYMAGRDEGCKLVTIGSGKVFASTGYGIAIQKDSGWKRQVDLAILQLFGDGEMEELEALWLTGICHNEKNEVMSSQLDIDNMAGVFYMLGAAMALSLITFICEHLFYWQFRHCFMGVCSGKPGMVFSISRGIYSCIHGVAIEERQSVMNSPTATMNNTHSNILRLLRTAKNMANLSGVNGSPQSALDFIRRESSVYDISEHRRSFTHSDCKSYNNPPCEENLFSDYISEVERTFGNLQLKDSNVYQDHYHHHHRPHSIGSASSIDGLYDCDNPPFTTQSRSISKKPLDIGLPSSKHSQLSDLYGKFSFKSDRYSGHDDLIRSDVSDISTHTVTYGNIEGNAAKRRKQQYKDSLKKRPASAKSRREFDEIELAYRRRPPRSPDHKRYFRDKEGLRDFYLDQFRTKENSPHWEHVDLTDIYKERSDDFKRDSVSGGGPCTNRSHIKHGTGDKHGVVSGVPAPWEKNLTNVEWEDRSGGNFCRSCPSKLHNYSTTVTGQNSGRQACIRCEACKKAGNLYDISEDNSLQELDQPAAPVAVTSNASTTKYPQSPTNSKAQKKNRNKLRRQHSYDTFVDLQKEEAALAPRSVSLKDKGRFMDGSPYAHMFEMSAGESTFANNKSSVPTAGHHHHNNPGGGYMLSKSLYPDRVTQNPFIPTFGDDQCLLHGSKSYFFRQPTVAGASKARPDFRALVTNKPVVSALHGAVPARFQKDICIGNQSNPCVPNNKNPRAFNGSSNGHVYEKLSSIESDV

Compound | IC50 [1] | Papp A→B [2] | efflux ratio [2]
O=C(OCc1cccc(F)c1)N1CCO[C@H](c2nc3cccnc3[nH]2)C1 [Example 1] | 409 nM | 61 ×10⁻⁶ cm/s | 0.9
O=C(OCc1ccc(F)cc1)N1CCO[C@H](c2nc3cccnc3[nH]2)C1 [Example 2] | 83 nM | 31.5 ×10⁻⁶ cm/s | 1.7
Cc1ccccc1COC(=O)N1CCO[C@H](c2nc3cccnc3[nH]2)C1 [Example 8] | 404 nM | 39 ×10⁻⁶ cm/s | 1.6
Cc1cccc(F)c1COC(=O)N1CCO[C@H](c2nc3cccnc3[nH]2)C1 [Example 10] | 156 nM | 37 ×10⁻⁶ cm/s | 1.6
Cc1ccc(COC(=O)N2CCO[C@H](c3nc4cccnc4[nH]3)C2)c(F)c1 [Example 11] | 55 nM | 32 ×10⁻⁶ cm/s | 1.4
Cc1ccc(COC(=O)N2CCO[C@H](c3nc4cccnc4[nH]3)C2)cc1F [Example 12] | 73 nM | 46 ×10⁻⁶ cm/s | 0.9
O=C(OCc1ccc(F)cc1Cl)N1CCO[C@H](c2nc3cccnc3[nH]2)C1 [Example 13] | 122 nM | 35 ×10⁻⁶ cm/s | 1.3

Next, values leading:

IC50 [1] | Papp A→B [2] | efflux ratio [2] | Compound
121 nM | 38 ×10⁻⁶ cm/s | 1.1 | O=C(OCc1ccccc1Cl)N1CCO[C@H](c2nc3cccnc3[nH]2)C1 [Example 14]
93 nM | 59 ×10⁻⁶ cm/s | 1.2 | O=C(OCc1cccc(F)c1F)N1CCO[C@H](c2nc3cccnc3[nH]2)C1 [Example 15]
104 nM | 41 ×10⁻⁶ cm/s | 1.2 | O=C(OCc1c(F)cccc1F)N1CCO[C@H](c2nc3cccnc3[nH]2)C1 [Example 16]
76 nM | 40 ×10⁻⁶ cm/s | 1.3 | O=C(OCc1ccccc1)N1CCO[C@H](c2nc3cccnc3[nH]2)C1 [Example 17]
54 nM | 37 ×10⁻⁶ cm/s | 1.3 | Cc1ccc(COC(=O)N2CCO[C@H](c3nc4cccnc4[nH]3)C2)cc1 [Example 18]
128 nM | 42 ×10⁻⁶ cm/s | 1.6 | O=C(OCc1ccc(F)cc1F)N1CCO[C@H](c2nc3cccnc3[nH]2)C1 [Example 19]
78 nM | 32 ×10⁻⁶ cm/s | 2 | O=C(OCc1ccc(C(F)F)cc1)N1CCO[C@H](c2nc3cccnc3[nH]2)C1 [Example 26]
95 nM | 65 ×10⁻⁶ cm/s | 1.2 | O=C(OCc1ccccc1F)N1CCO[C@H](c2nc3cccnc3[nH]2)C1 [Example 27]
42 nM | 42 ×10⁻⁶ cm/s | 1.1 | O=C(OCc1ccc(Cl)cc1)N1CCO[C@H](c2nc3cccnc3[nH]2)C1 [Example 28]
132 nM | 18 ×10⁻⁶ cm/s | 1.8 | Cc1ccc(COC(=O)N2CCO[C@H](c3nc4cc(F)cnc4[nH]3)C2)cc1 [Example 31]
